The text below walks through data of paper PMC10648942, “Safety and pharmacokinetics of SPR206 in subjects with varying degrees of renal impairment” (Antimicrobial Agents and Chemotherapy, 2023).

A word on the AUC(0-t): it is the area under the concentration-time curve up to a stated or last time point. The term Cmax denotes the peak of the concentration-time curve. A word on the MIC90: it is the lowest concentration that inhibits either 90% of growth or 90% of the strains tested, depending on the study.

For series [1] the following is noted: cited from earlier work.
On the set-up of series [2]: species or system human; AUC0-8 vs eGFR regression, Coefficient (95% CI) / AUC0-last vs eGFR regression, Intercept / AUC0-last vs eGFR regression, Coefficient (95% CI) / AUC0-∞ vs eGFR regression, Intercept / AUC0-∞ vs eGFR regression, Coefficient (95% CI) / AUC0-8 vs eGFR regression, Intercept: unit not given beside the values. To be noted: in vivo. Here is the method: To model the relationship between renal function and PK parameters, a linear regression analysis was performed using log-transformed values of AUC0–8, AUC0–last, AUC0–∞, C max, and CL, which were dependent variables. The independent variable to predict the PK parameters was eGFR after adjusting for baseline covariates (age, gender, race, and body weight). Parameter estimates, standard errors, confidence intervals (CIs), and P-values were presented.

For series [3] the following is noted: human, in vivo, cited from earlier work.
For series [4] the following is noted: human; cited from earlier work.
On the set-up of series [5]: species or system human. Conditions: in vivo. The protocol:
(§1) Subjects in Cohorts 1–4 had serial blood samples collected to determine plasma SPR206 concentrations at pre-dose (0) and 0.5, 1, 1.25, 1.5, 2, 2.5, 3, 5, 8, 10, 12, 18, 24, and 36 h post-dose. Total voided urine was collected over a 2-h interval from −2 to 0 h (pre-dose) and at 0–4, 4–8, 8–12, 12–24, and 24–36 h post-dose. For subjects in Cohort 5, blood samples were collected on dosing days 1 and 5 pre-dose (0 h) and 0.5, 1, 1.25, 1.5, 2, 2.5, 3, 5, 8, 10, 12, 18, 24, and 36 h after dosing. On day 5 (Period 2), the 1-h post-dose sample was collected immediately prior to initiation of dialysis, and the 5-h post-dose sample was collected 10 min prior to the end of dialysis. The 36-h post-dose samples on days 3 and 7 were collected prior to the next dialysis session if scheduled on the same day. In Period 2, blood samples were collected from both the inflow (arterial) and outflow (venous) lines pre-dialysis and at approximately 1, 2, 3, and 4 h after initiation of HD on day 5. If the HD session was shorter or longer than 4 h after the start of HD, a final sample was collected at the end of dialysis. Plasma and urine samples were assayed for SPR206 using a validated liquid chromatography tandem mass spectrometry method (QPS, LLC, Newark, DE, USA). For plasma, the assay range was 50 to 50,000 ng/mL, and for urine, the range was 100 to 50,000 ng/mL. In plasma, the intraday precision (% coefficient of variation) ranged from 1.3% to 7.7%, and the accuracy (% relative error) ranged from 1.6% to 6.0%. In urine, the intraday precision (% coefficient of variation) ranged from 1.7% to 7.5%, and the accuracy (% relative error) ranged from −4.8% to 7.3%. Additional details are provided in the Supplement. Urine PK parameters included Aet, Ae%, Aeu, CLR, Fe, and Feu.

The test system of another series is kidney cell. To be noted: cited from earlier work.
For series [6] the following is noted: rat, in vivo; cited from earlier work.
For series [7] the following is noted: human, in vivo; cited from earlier work.
The nature of series [8]: Safety/tolerability (TEAEs, laboratory, ECG), Phase 1 renal impairment study. It is filed as in vivo, human.
Another series can be described thus: clinical. Conditions: in vivo. Also noted: species or system human; AUC0–∞ LS GMR vs healthy subjects, range / AUC0–last LS GMR vs healthy subjects, range / AUC0−8, LS GMR (90% CI): unit not given beside the values.
Excerpt: This was a Phase 1, open-label study to assess the safety, tolerability, and PK of a single 100-mg IV dose of SPR206 administered to healthy adults with normal renal function and those with varying degrees of RI including subjects with ESRD on HD. Subjects were screened within 28 days prior to dosing. Study drug administration occurred on day 1 for Cohorts 1–4 (normal renal function, mild RI, moderate RI, and severe RI) and on days 1 and 5 for Cohort 5 (ESRD on HD). Subjects remained confined to the clinical study unit from day −1 (1 day prior to study drug administration) until completion of the scheduled study procedures at the end of confinement on day 4 (Cohorts 1–4) or on day 7 (Cohort 5). A follow-up safety visit occurred 7 to 14 calendar days after the last dose for all subjects.
On the morning of day 1, subjects in Cohorts 1–4 received a single 100-mg IV dose of […] infused over 1 h. Subjects in Cohort 5 received a single IV dose of SPR206 within 2 h (±1 h) after completion of regularly scheduled HD on day 1 (Period 1) and a second dose approximately 1 h prior to their regularly scheduled HD on day 5 (Period 2). Details of the HD procedure are provided in the Supplement.
as §1, with “Supplement.” for “Supplement. Urine PK parameters included Aet, Ae%, Aeu, CLR, Fe, and Feu.”
For all cohorts, the following PK parameters were calculated using noncompartmental methods based on plasma SPR206 concentrations: C max, T max, AUC0−last, AUC0−8, AUC0−∞, terminal elimination half-life (t 1/2), CL, and volume of distribution at the terminal phase (V Z). For Cohort 5, additional parameters were extraction ratio (ER), estimated hemodialysis clearance, and amount of the dose removed by hemodialysis. The ER was calculated as 100 × [(CA − CV)/CA], where CA and CV were predialyzer and postdialyzer paired drug concentrations at the arterial and venous sites. SPR206 clearance during HD (CLHD) was calculated using the following equation: CLHD = Q × ER, where Q was the known blood flow through the dialyzer. The amount of SPR206 removed by dialysis (XHD) was estimated by multiplying the AUC during dialysis [i.e., AUC from the beginning of dialysis to end of dialysis (AUCon–HD)] by CLHD: XHD = AUCon–HD × CLHD.
Mean and individual plasma concentration-time curves were tabulated for each cohort (and for Cohort 5 subjects by period). […]

In another series the test system is P. aeruginosa. More on the design: method as in doi:10.1093/ofid/ofac492.1306, doi:10.1093/ofid/ofac492.1307. Conditions: P. aeruginosa clinical isolates; cited from earlier work.
The subject of a further series is Acinetobacter species. More on the design: method as in doi:10.1093/ofid/ofac492.1306, doi:10.1093/ofid/ofac492.1307. Conditions: Acinetobacter species clinical isolates; cited from earlier work.
Another series deals with Enterobacterales. More on the design: method as in doi:10.1093/ofid/ofac492.1306, doi:10.1093/ofid/ofac492.1307. Conditions: Enterobacterales clinical isolates; cited from earlier work.

Where two headings read alike, the source gives them in different places. Bridge positions count the residues as written; N and C are the ends. Square brackets hold non-standard residues; d marks the D form. Peptide text beside a SMILES is read from it. * marks the point of attachment. X1 = NC[C@@H](CC(=O)*)c1cccc(Cl)c1; Dab = NCC[C@H](N)C(=O)O; Dap = NC[C@H](N)C(=O)O

On to polymyxin B, for which the route of elimination entry in [1] is on record as “eliminated primarily by non-renal mechanisms”.
Turning to `CC(C)C[C@@H]1NC(=O)[C@@H](Cc2ccccc2)NC(=O)[C@H](CCN)NC(=O)[C@@H](NC(=O)[C@H](CN)NC(=O)[C@@H](NC(=O)C[C@H](CN)c2cccc(Cl)c2)[C@@H](C)O)CCNC(=O)[C@H]([C@@H](C)O)NC(=O)[C@H](CCN)NC(=O)[C@H](CCN)NC1=O` [SPR206] (X1-T[Dap][Dab][Dab][dF]L[Dab][Dab]T; lactam 3-C (inferred)), in series [2], the “AUC0-8 vs eGFR regression, Coefficient (95% CI)” value is reported as −0.0063 (−0.0083, –0.0044); the “AUC0-8 vs eGFR regression, Intercept” value is reported as 3.5; the “AUC0-last vs eGFR regression, Coefficient (95% CI)” value was −0.0147 (−0.0168, –0.0125); the “AUC0-last vs eGFR regression, Intercept” value was determined as 4.5. Also, in series [2], the “AUC0-∞ vs eGFR regression, Coefficient (95% CI)” value is reported as −0.0161 (−0.0190, –0.0131); the “AUC0-∞ vs eGFR regression, Intercept” value is 4.6; the “C max vs eGFR regression, Coefficient (95% CI)” value is −0.0018 (−0.0040, 0.0005); the “C max vs eGFR regression, Intercept” value amounted to 2.0. In series [2], the “CL vs eGFR regression, Coefficient (95% CI)” value was 0.0172 (0.0148, 0.0196) and the “CL vs eGFR regression, Intercept” value worked out at 0.1. For the same molecule, in series [3] (iv), the “AUC0–∞” value was 20400 ng·h/mL, the C max was 5300 ng/mL and the “total CL” value is 5.0 L/h. Also, in [3], the “pharmacokinetic profile in a Phase 1 study” value is given as “dose-proportional” and the “tolerability in a Phase 1 study” value is on record as “well tolerated”. In addition, in series [4], the Protein binding was at most 12.8%. The “mean CLR as % of total CL” value in series [5] (human) worked out at 24.6%. Further, in [5], the “time up to which urine concentrations were quantifiable” value is “up to 36 h” and the “time within which SPR206 was excreted in urine” value is recorded as at most 12 h. The “kidney cell cytotoxicity compared with polymyxin B” value with kidney cell is reported as “lower kidney cell cytotoxicity”. For the same molecule, the “kidney exposure compared with polymyxin B” value in series [6] is given as “lower kidney exposure”. In addition, in series [7], the “AUC0–8” value is 20100 ng·h/mL and the C max was 4400 ng/mL. The “deaths, treatment-related serious AEs, TEAEs leading to study discontinuation” value in [8] (all cohorts) was “No deaths, treatment-related serious AEs, or TEAEs leading to study discontinuation were reported”. In series [8] (in vivo), the “TEAE headache, overall incidence” value came to 13.5%; the “TEAE paresthesia, overall incidence” value is recorded as 8.1%; the “clinical laboratory results, ECG findings, physical examination” value is recorded as “No clinically significant abnormalities”; the “relation of the two serious (severe) TEAEs to study drug” value was “unrelated to study drug”. Besides, in series [8] (in vivo), the “serum creatinine levels from screening through follow-up” value is recorded as “remained stable”; the “subjects whose TEAEs were mild” value is 19 (51.4%) subjects (%); the “subjects with at least one TEAE” value is reported as 23 (62.2%) subjects (%); the “subjects with moderate TEAEs (infusion site phlebitis, drug hypersensitivity) leading to study drug discontinuation” value is recorded as 5.4%. Moreover, in series [8] (in vivo), the “subjects with treatment-related AEs” value was 13 (35.1%) subjects (%) and the “treatment-related adverse events, severity” value is “Mostly mild but no serious treatment-related adverse events were reported”. For the same molecule, the “TEAE oral paresthesia, overall incidence” value in [8] (in vivo, po) was determined as 8.1%. In the series “clinical” (human), the “AUC0–last greater than healthy subjects” value was 131%, the “CL lower than healthy subjects” value was determined as 75% and the “time of peak plasma concentration (end of infusion)” value is on record as 1 h. Moreover, the exposure AUC(0-t) in the series “clinical” (human, AUC0–8, LS GM (SE)) was 21800 ng·h/mL. In “clinical” (human, AUC0−8, LS GM (SE)), this molecule showed an AUC(0-t) of 17300 ng·h/mL. This molecule displayed a Cmax in “clinical” (human, C max, LS GM (SE)) of 5900 ng/mL. The peak level in the series “clinical” (human, iv, C max, geometric mean (CV %)) (Cmax) was 5900 ng/mL. The molecule further showed a Cmax in “clinical” (human, mean peak concentration (C max)) of around 6500 ng/mL. Further, in the series “clinical”, the “AUC0–last LS GMR vs healthy subjects, range” value is reported as 1.39-3.39; the “AUC0–∞ LS GMR vs healthy subjects, range” value is 1.39-4.09; the “AUC0−8, LS GMR (90% CI)” value was 0.59 (0.52, 0.67); the “C max LS GMR vs healthy subjects, range” value is 1.07-1.14. Further, in “clinical”, the “CL LS GMR vs healthy subjects, range” value is recorded as 0.71-0.24; the “mean AUC0–last greater in subjects with RI vs healthy subjects” value is given as 39-239%; the “mean AUC0–last lower, dialyzed vs nondialyzed” value came to 51%; the “mean plasma CL lower vs healthy subjects” value is listed as 29-76%.
On to colistin, for which the MIC90 in the series with P. aeruginosa was 1 µg/mL; in the series with Acinetobacter species, 1 µg/mL; with Enterobacterales, 0.5 µg/mL. In series [1] (in vivo), the route of elimination result was “eliminated primarily by non-renal mechanisms”.
colistin methanesulfonate: the route of elimination entry in series [1] (in vivo) is “eliminated predominantly by renal excretion”.
